Results published in patent publication US6440995B1, “Quinolin-4-yl derivatives” (Hoffman-La Roche Inc., priority 1999, dated 2002).
Where a name gives a salt, the structure may show the parent alone.

Assays:
NMDA receptor = biological target: T1, NMDA receptor (Rattus norvegicus, UniProt P35439+Q00960); test: 3H-Ro 25-6981 binding (displacement, rat brain membranes); conditions: displacement of 5 nM 3H-Ro 25-6981; rat whole brain minus cerebellum and medulla oblongata membranes; 2 hours at 4° C., pH 7.4
T1 construct: Membranes were prepared by homogenization of the whole brain minus cerebellum and medulla oblongata; from tissue; host or cells: rat whole brain minus cerebellum and medulla oblongata, membranes
T1 sequence (Q00960 27-1482, other chains not shown): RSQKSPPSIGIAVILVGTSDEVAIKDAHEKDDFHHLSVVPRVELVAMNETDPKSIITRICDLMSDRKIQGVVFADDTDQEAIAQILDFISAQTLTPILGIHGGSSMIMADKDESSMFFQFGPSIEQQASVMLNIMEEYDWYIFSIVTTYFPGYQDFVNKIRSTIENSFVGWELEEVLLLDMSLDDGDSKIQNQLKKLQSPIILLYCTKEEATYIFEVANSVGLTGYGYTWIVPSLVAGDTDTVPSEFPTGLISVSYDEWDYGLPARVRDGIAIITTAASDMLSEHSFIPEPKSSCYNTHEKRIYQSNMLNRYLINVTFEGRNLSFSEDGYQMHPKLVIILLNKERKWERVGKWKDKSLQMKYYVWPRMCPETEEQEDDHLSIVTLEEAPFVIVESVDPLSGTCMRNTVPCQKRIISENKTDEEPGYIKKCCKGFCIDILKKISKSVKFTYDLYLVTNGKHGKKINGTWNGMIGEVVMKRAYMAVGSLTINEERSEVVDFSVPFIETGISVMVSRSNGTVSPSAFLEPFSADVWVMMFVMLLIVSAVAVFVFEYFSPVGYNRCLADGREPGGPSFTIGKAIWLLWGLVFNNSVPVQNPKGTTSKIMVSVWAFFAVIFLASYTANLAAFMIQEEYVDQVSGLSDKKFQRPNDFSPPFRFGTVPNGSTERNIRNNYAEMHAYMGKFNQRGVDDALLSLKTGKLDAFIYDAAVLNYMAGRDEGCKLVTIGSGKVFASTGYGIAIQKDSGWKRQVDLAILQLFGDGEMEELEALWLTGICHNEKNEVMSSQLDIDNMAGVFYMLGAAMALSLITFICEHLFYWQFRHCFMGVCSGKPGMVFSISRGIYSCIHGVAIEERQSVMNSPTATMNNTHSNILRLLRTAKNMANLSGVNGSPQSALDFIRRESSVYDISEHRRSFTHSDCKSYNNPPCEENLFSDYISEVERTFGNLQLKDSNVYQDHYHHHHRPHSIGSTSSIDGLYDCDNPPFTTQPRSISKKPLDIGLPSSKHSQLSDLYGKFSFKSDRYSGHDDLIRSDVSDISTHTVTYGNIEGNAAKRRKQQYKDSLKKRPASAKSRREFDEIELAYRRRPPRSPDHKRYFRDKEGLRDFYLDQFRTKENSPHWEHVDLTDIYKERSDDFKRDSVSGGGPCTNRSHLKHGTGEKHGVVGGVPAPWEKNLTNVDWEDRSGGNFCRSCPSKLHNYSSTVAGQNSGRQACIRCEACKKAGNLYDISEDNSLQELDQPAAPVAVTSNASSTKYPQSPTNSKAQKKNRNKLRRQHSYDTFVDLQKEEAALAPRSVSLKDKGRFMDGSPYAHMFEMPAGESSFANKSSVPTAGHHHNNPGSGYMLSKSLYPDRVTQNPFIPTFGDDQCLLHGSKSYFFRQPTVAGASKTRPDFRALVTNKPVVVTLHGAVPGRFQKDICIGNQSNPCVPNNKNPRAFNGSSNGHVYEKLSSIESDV
Procedure: 3H-Ro 25-6981 binding (Ro 25-6981 is [R-(R*,S*)]-a-(4-Hydroxy-phenyl)-b-methyl-4-(phenyl-methyl)-1-piperidine propanol)
Male Füllinsdorf albino rats weighing between 150-200 g were used. Membranes were prepared by homogenization of the whole brain minus cerebellum and medulla oblongata with a Polytron (10 000 rpm, 30 seconds), in 25 volumes of a cold Tris-HCl 50 mM, EDTA 10 mM, pH 7.1 buffer. The homogenate was centrifuged at 48.000 g for 10 minutes at 4° C. The pellet was resuspended using the Polytron in the same volume of buffer and the homogenate was incubated at 37° C. for 10 minutes. After centrifugation the pellet was homogenized in the same buffer and frozen at −80° C. for at least 16 hours but not more than 10 days. For the binding assay the homogenate was thawed at 37° C., centrifuged and the pellet was washed three times as above in a Tris-HCl 5 mM, pH 7.4 cold buffer. The final pellet was resuspended in the same buffer and used at a final concentration of […].
3H-Ro 25-6981 binding experiments were performed using a Tris-HCl 50 mM, pH 7.4 buffer. For displacement experiments 5 nM of 3H-Ro 25-6981 were used and non specific binding was measured using 10 mM of tetrahydroisoquinoline and usually it accounts for 10% of the total. The incubation time was 2 hours at 4° C. and the assay was stopped by filtration on Whatmann GF/B glass fiber filters (Unifilter-96, Packard, Zürich, Switzerland). The filters were washed 5 times with cold buffer. The radioactivity on the filter was counted on a Packard Top-count microplate scintillation counter after addition of […] of microscint 40 (Canberra Packard S.A., Zürich, Switzerland).
The effects of compounds were measured using a minimum of 8 concentrations and repeated at least once. The pooled normalized values were analyzed using a non-linear regression calculation program which provide IC50) with their relative upper and lower 95% confidence limits (RS1, BBN, USA).

SMILES	melting point [°C]	IC50 (NMDA receptor) [nM]
Cl.OCC(O)CNc1cc(-c2ccccc2)nc2ccccc12 (racemic)	225 to 227	–
Cl.OCC(O)CNc1cc(-c2cc3ccccc3o2)nc2ccccc12 (racemic)	263 to 265	–
COc1cccc2c(NCCO)cc(-c3ccccc3)nc12.Cl	205 to 209	–
Cc1ccc(-c2cc(NCC(O)CN)c3ccccc3n2)cc1.Cl (racemic) [Example 2, (RS)-1-Amino-3-(2-p-tolyl-quinolin-4-ylamino)-propan-2-ol hydrochloride]	264 to 272	20
CNCC(O)COc1cc(-c2ccc(C)cc2)nc2cc(C)ccc12 (racemic)	146 to 150	–
Cl.OCCNc1cc(-c2ccc3c(c2)CCCC3)nc2ccccc12 [Example 18, 2-[2-(5,6,7,8-Tetrahydro-naphthalen-2-yl)-quinolin-4-ylamino]-ethanol hydrochloride]	250 to 252	40
CC(C)NCC(O)COc1cc(-c2ccccc2)nc2ccccc12 (racemic)	109 to 111	–
Cl.NCC(O)CNc1cc(-c2ccccc2)nc2ccccc12 (racemic)	291 to 294	–
Cc1ccc(-c2cc(NC[C@H](C)O)c3ccc(C)cc3n2)cc1.Cl	264 to 267	–
C[C@H](O)CNc1cc(-c2ccc3c(c2)CCO3)nc2ccccc12.Cl	236 to 242	–
COc1cccc2c(NCC(O)CO)cc(-c3ccccc3)nc12.Cl (racemic)	110 to 116	–
CNCC(O)CNc1cc(-c2ccc(OC)cc2)nc2ccccc12 (racemic) [Example 77, (RS)-1-[2-(4-Methoxy-phenyl)-quinolin-4-ylamino]-3-methylamino-propan-2-ol hydrochloride]	–	58
Cc1ccc(-c2cc(NCCO)c3ccc(C)cc3n2)cc1.Cl	260 to 263	–
Cl.OCCNc1cc(-c2ccc(Cl)cc2)nc2ccccc12	262 to 264	–
COc1ccc(-c2cc(NCCO)c3ccc(C)cc3n2)cc1.Cl	233 to 238	–
O=C(O)/C=C/C(=O)O.OCC(O)CNc1cc(/C=C/c2ccccc2)nc2ccccc12 (racemic)	220 to 222	–

SMILES	melting point [°C]	IC50 (NMDA receptor) [nM]
Cl.Cl.NCC(O)CNc1cc(-c2ccc(Cl)cc2)nc2ccccc12 (racemic)	283 to 287	–
CNCC(O)COc1cc(-c2ccsc2)nc2ccccc12.Cl (racemic)	236 to 238	–
Cl.OCC(O)CNc1cc(CCc2ccccc2)nc2ccccc12 (racemic)	143 to 145	–
NCC(O)CNc1cc(-c2ccc(Cl)cc2)nc2ccccc12 (racemic)	283 to 287	–
OCC(O)CNc1cc(-c2ccc3c(c2)CCO3)nc2ccccc12 (racemic) [Example 32, (RS)-3-[2-(2,3-Dihydro-benzofuran-5-yl)-quinolin-4-ylamino]-propane-1,2-diol hydrochloride]	–	66
CCNCC(O)COc1cc(-c2ccccc2)nc2ccccc12.Cl (stereo not shown)	170 to 174	–
Cc1ccc(-c2cc(NCC(O)CO)c3ccccc3n2)cc1Cl.Cl (racemic)	230 to 231	–
NCC(O)CNc1cc(N2CCc3ccccc3C2)nc2ccccc12 (racemic) [Example 10, (RS)-1-Amino-3-[2-(3,4-dihydro-1H-isoquinolin-2-yl)-quinolin-4-ylamino]-propan-2-ol hydrochloride]	–	30
Cl.OCC(O)CNc1cc(N2Cc3ccccc3C2)nc2ccccc12 (racemic)	295 to 301	–
OCC(O)CNc1cc(-c2ccc3c(c2)CCO3)nc2ccccc12 (racemic) (as salt: hydrochloride) [Example 32, (RS)-3-[2-(2,3-Dihydro-benzofuran-5-yl)-quinolin-4-ylamino]-propane-1,2-diol hydrochloride]	267 to 270	–
CC(O)CNc1cc(-c2ccccc2)nc2ccccc12.Cl (racemic)	251 to 253	–
Cc1cccc(-c2cc(NCC(O)CO)c3ccccc3n2)c1.Cl (racemic)	208 to 215	–
COc1ccc(-c2cc(N(C)CCO)c3ccccc3n2)cc1.Cl [Example 46, 2-{[2-(4-Methoxy-phenyl)-quinolin-4-yl]-methyl-amino}-ethanol hydrochloride]	201 to 204	130
CNCC(O)COc1cc(-c2ccc(OC)cc2)nc2cc(C)ccc12 (racemic)	140 to 142	–
CNCC(O)COc1cc(-c2ccccc2)nc2cc(Cl)ccc12.Cl (racemic)	192 to 193	–
